These results are taken from PubChem BioAssay AID1996.

Converted amounts (≈) assume the structure as drawn.

For the data set the following is noted: buffer; pH 7.4; 200.0 µM.
What is called solubility (kinetic) is solubility judged after dilution from a stock solution rather than from solid. `O=C(O)c1ccc(Cl)c(S(=O)(=O)Nc2ccc(S(=O)(=O)N3CCCC3)cc2)c1` yielded a kinetic solubility greater than 66.7 µg/mL.
Under `O=C(COC(=O)c1ccc2c(c1)OCO2)Nc1ccccc1F` stands 6.3 µg/mL (≈ 19.9 µM).
For the compound `O=C(COc1ccccc1F)Nc1nc(-c2ccccn2)cs1`, the solubility (kinetic) worked out at 8.8 µg/mL (≈ 26.7 µM).
As to `Cc1ccc[n+](CC(=O)Nc2ccc(N(C)C)cc2)c1.[Cl-]`, the solubility (kinetic) was greater than 45.9 µg/mL.
Regarding `Cc1cc2nsnc2c(S(=O)(=O)N2CCN(C)CC2)c1C`, the solubility (kinetic) is 47.9 µg/mL (≈ 147 µM).
In turn, `Fc1ccc(CNCCc2ccc3c(c2)OCO3)cc1` came in with a solubility (kinetic) of 31.1 µg/mL (≈ 114 µM).
`N#Cc1ccc(S(=O)(=O)NC2CCCCNC2=O)cc1` (stereo unspecified): the solubility (kinetic) was greater than 44 µg/mL.
`CC(=O)Nc1ccc(C2C(=O)c3ccccc3C2=O)cc1`: the solubility (kinetic) worked out at 39 µg/mL (≈ 140 µM).
Under `O=C1Nc2ccccc2Nc2ccc([N+](=O)[O-])cc21` stands 1.1 µg/mL (≈ 4.31 µM); under `Cn1ccnc1COc1ccc(C=O)cc1`, greater than 32.4 µg/mL.
With `CC(=O)NC(CC(=O)OCC(=O)c1cc(C)ccc1C)c1ccccc1` (stereo unspecified), the solubility (kinetic) is greater than 53 µg/mL.
`O=C(O)c1ccccc1Sc1ncnc2sccc12`: the kinetic solubility is greater than 43.3 µg/mL.
In turn, `O=C(NCC1CCCO1)c1cncc(Br)c1` (stereo unspecified) registered a kinetic solubility greater than 42.8 µg/mL.
Under `CCOC(=O)c1sc(=S)n(-c2ccc(OC)cc2)c1C` stands 18.1 µg/mL (≈ 58.5 µM).
As to `COc1ccccc1/C=C1/C(=O)ON=C1C`, the solubility (kinetic) is 31.3 µg/mL (≈ 144 µM).
The same measure for `CCCCOc1ccc(/C(O)=C(\C#N)c2nc3ccccc3[nH]2)cc1`: less than 0.2 µg/mL; for `Clc1nc2c(ccc3ccccc32)[nH]1`: greater than 30.4 µg/mL.
The same measure for `Cc1ccc(C(=O)Nc2ncccc2O)o1`: greater than 32.7 µg/mL; for `Cc1nc(-c2cccc(NC(=O)Cc3ccccc3)c2)cs1`: 30.1 µg/mL (≈ 97.6 µM).
Compound `O=C1CC(C2CCCO2)C(=O)N1c1ccc(Cl)c(Cl)c1` (stereo unspecified) registered a kinetic solubility greater than 47.1 µg/mL.
`CC(=O)N1CCN(c2ncnc3ccccc23)CC1` showed a kinetic solubility greater than 38.4 µg/mL.
With `CS(=O)(=O)N(CC(=O)Nc1c(F)cccc1F)Cc1ccccc1`, the solubility (kinetic) is greater than 53.2 µg/mL.
The compound `Cc1cc(C)c2c(c1)N[C@H](c1cccs1)[C@@H]1CCO[C@H]21` registered a kinetic solubility of 1.7 µg/mL (≈ 5.96 µM).
Compound `COc1ccccc1OCC(=O)Nc1ncc(C)s1` showed a kinetic solubility of 41.2 µg/mL (≈ 148 µM).
`COc1cc(SC)ccc1C(=O)Nc1nc(C)cc(C)n1` came in with a solubility (kinetic) of 40.7 µg/mL (≈ 134 µM).
`O=C(Cc1ccc(Cl)cc1)Nc1ccccn1` had a solubility (kinetic) greater than 37 µg/mL.
`CCSc1nc2ccccc2n1CC(=O)O`: the solubility (kinetic) was greater than 35.4 µg/mL.
The compound `Cc1ccnc(SC2CC(=O)N(c3ccc(Cl)cc3)C2=O)n1` (stereo unspecified) displayed a kinetic solubility greater than 50.1 µg/mL.
Under `CN1C(=O)NC(c2cccc([N+](=O)[O-])c2)C2=C1CC(C)(C)CC2=O` (stereo unspecified) stands 34.6 µg/mL (≈ 105 µM); under `Cc1cccc(OCCCCN2CCNCC2)c1`, 21.3 µg/mL (≈ 85.8 µM); under `Cc1noc(C)c1CN1C(=O)c2ccccc2C1=O`, 30.1 µg/mL (≈ 117 µM).
The same measure for `c1ccc(CCNc2ncnc3sccc23)nc1`: greater than 38.4 µg/mL; for `CSc1ncccc1C(=O)Nc1nc(C(C)(C)C)cs1`: 37.6 µg/mL (≈ 122 µM).
`O=C(Cc1c(F)cccc1Cl)NCCN1CCOCC1` displayed a solubility (kinetic) greater than 45.1 µg/mL.
`CN(C)CCOC1c2ccccc2-c2ccccc21.O=C(O)C(=O)O`: the solubility (kinetic) was greater than 51.5 µg/mL.
`COC(=O)Cc1c(O)ccn(CCc2ccc(OC)c(OC)c2)c1=O` yielded a kinetic solubility greater than 52.1 µg/mL.
`Nc1ccc(-c2ncc(-c3ccccc3)o2)cc1` yielded a solubility (kinetic) of 4.3 µg/mL (≈ 18.2 µM).
Compound `N#Cc1ccc(C(=O)NN2C(=O)NC3(CCCCC3)C2=O)cc1` came in with a solubility (kinetic) greater than 46.8 µg/mL.
`Cc1cc(=O)[nH]c(-c2cccs2)n1`: the kinetic solubility was greater than 28.8 µg/mL.
The compound `N#Cc1ccccc1NC(=S)NC(=O)c1cccs1` showed a kinetic solubility of 30.7 µg/mL (≈ 107 µM).
As to `CCCCNC(=O)N1CCCN(c2ccc(C#N)cn2)CC1`, the solubility (kinetic) was greater than 45.2 µg/mL.
Turning to `CC(NC(=O)C1CC1)C(c1cccs1)N1CCOCC1` (stereo unspecified), the solubility (kinetic) was greater than 44.2 µg/mL.
The same measure for `CNC(=O)c1ccc(CNC(=O)OCc2ccccc2)cc1`: greater than 44.8 µg/mL.
`O=c1c2ccccc2[nH]c(=S)n1Cc1ccc2c(c1)OCO2` registered a solubility (kinetic) of less than 0.3 µg/mL.
Turning to `Cc1ccc(C)c(N2C(=O)CC(Cc3ccccc3)C2=O)c1.Cl` (stereo unspecified), the solubility (kinetic) was greater than 49.5 µg/mL.
Compound `CC(=O)Nc1ccc(OCCC[n+]2ccccc2)cc1.[Cl-]` yielded a solubility (kinetic) greater than 46 µg/mL.
Under `COc1ccccc1CC(=O)N1CCN(c2cccc(Cl)c2)CC1` stands 22 µg/mL (≈ 63.8 µM); under `CN(C(=O)c1cc(-c2ccccc2)on1)C1CCCCC1`, 9.7 µg/mL (≈ 34.1 µM).
Under `Cc1ccc(NC(=O)c2cccc3cccnc23)cc1` stands 6.7 µg/mL (≈ 25.5 µM).
The same measure for `COc1ccc2c(C(=O)CN3CCSCC3)c[nH]c2c1`: 36.8 µg/mL (≈ 127 µM).
`COc1ccc(NS(=O)(=O)c2c(C)cc(C)cc2C)cn1` came in with a solubility (kinetic) of 5.3 µg/mL (≈ 17.3 µM).
The same measure for `CCOc1cc2c(cc1/C=C/c1noc(C)c1[N+](=O)[O-])OC(C)C2` (stereo unspecified): less than 0.4 µg/mL; for `O=C(NC1CCCC1)c1cc2cc(Br)ccc2o1`: 6.1 µg/mL (≈ 19.8 µM).
As to `CCc1cc2c(SC(C)C(=O)NC3CCCC3)ncnc2s1` (stereo unspecified), the kinetic solubility came to 34.4 µg/mL (≈ 103 µM).
Regarding `COc1cc(OC)c(OC)cc1/C=C1/C(=O)N=C(N)N1C`, the solubility (kinetic) was 34.5 µg/mL (≈ 118 µM).
For `CC1(C)CC(=O)C=C(NCc2cccc(C(F)(F)F)c2)C1`, the solubility (kinetic) was greater than 44.6 µg/mL.
`CN(CC(=O)Nc1cccc(F)c1)C(=O)CC1CCCCC1` displayed a kinetic solubility of 21.1 µg/mL (≈ 68.9 µM).
Turning to `COc1nc(OCC#N)nc(N2CCCCC2)n1`, the solubility (kinetic) worked out at 31.6 µg/mL (≈ 127 µM).
Regarding `CCN1C(=O)N(CC)c2cccc3cccc1c23`, the kinetic solubility is 1.6 µg/mL (≈ 6.66 µM).
In the case of `Fc1ccc(Nc2nc3ccccc3s2)cc1`, the solubility (kinetic) came out at 0.4 µg/mL (≈ 1.64 µM).
The same measure for `Cc1cccnc1NC(=O)C(c1ccccc1)c1ccccc1`: greater than 45.4 µg/mL.
`Cc1ccc(/C=C/C(=O)NN2CCN(C)CC2)cc1` yielded a solubility (kinetic) greater than 38.9 µg/mL.
Compound `COc1ccc(CNC(=O)C2CCN(C(=O)Cc3ccccc3)CC2)cc1` showed a kinetic solubility greater than 55 µg/mL.
The compound `COC(=O)c1sccc1NC(=O)c1ccc(C)cc1` registered a kinetic solubility of less than 0.6 µg/mL.
On to `O=C(NCC1CCCO1)c1ccc(NC(=O)c2ccc(Br)cc2)cc1` (stereo unspecified), for which the kinetic solubility worked out at 1.2 µg/mL (≈ 2.98 µM).
The same measure for `CSc1nccc(-c2sc(SC)c(C#N)c2-c2ccccc2)n1`: less than 0.3 µg/mL; for `Fc1ccc(CN2CCN(c3ncccn3)CC2)c(F)c1`: 32.2 µg/mL (≈ 111 µM); for `O=C(NCc1ccccc1Cl)NC(=O)c1csc([N+](=O)[O-])c1`: less than 0.2 µg/mL.
The same measure for `Cc1ccc(S(=O)(=O)CC(=O)c2ccc([N+](=O)[O-])cc2)cc1`: 9.1 µg/mL (≈ 28.5 µM); for `O=[N+]([O-])c1cccc2ccc(N3CCOCC3)nc12`: 38.4 µg/mL (≈ 148 µM); for `CC1CCCC(NC(=O)COC(=O)c2cccs2)C1C` (stereo unspecified): 43.1 µg/mL (≈ 146 µM).
The compound `c1ccc2c(SCc3cn4ccccc4n3)nncc2c1` displayed a solubility (kinetic) greater than 43.9 µg/mL.
In turn, `O=[N+]([O-])c1ccc(Oc2cccnc2)nc1` gave a solubility (kinetic) of 25.5 µg/mL (≈ 117 µM).
In turn, `CCCOc1ccc(N2CC(C(=O)NC3=NCCS3)CC2=O)cc1` (stereo unspecified) gave a kinetic solubility of 43.8 µg/mL (≈ 126 µM).
Turning to `O=C(c1ccccc1[N+](=O)[O-])N1CCCC(C(=O)N2CCCCCC2)C1` (stereo unspecified), the solubility (kinetic) worked out at 53 µg/mL (≈ 147 µM).
Regarding `C[C@@H]1C(NC(=O)c2ccccc2)CC2CC1C2(C)C` (stereo partly specified), the kinetic solubility worked out at 6.4 µg/mL (≈ 24.9 µM).
